Results from US10287585B2, “Therapy” (priority 2015, dated 2019).
“Also recorded” adds a separate entry of the source.

Experiments:
Type in all cases: in vivo
E. coli CFT073 [1] = experiment: Treatment of Irf3−/− mice after intravesical E. coli CFT073 infection: Irf7 siRNA compared with antibiotic therapy (Example 5); settings: for number (frequency) of abscesses: siRNA intravenously and intravesically 24 hours and 4 days after infection, vs untreated
Procedure: Irf7 siRNA treatment was compared with antibiotic therapy. Groups of 6 Irf3^−/− mice were treated intravenously and intravesically with siRNA as described in Example 3, 24 hours and 4 days after intravesical infection with E. coli CFT073. The 24 hour time point corresponds to the time of acute symptoms, when patients are first diagnosed with febrile urinary tract infection (UTI) and treatment is initiated.
Also at that time, and following infection with E. coli CFT073, Irf3 mice were treated with the third-generation cephalosporin broad-spectrum antibiotic, Cefotaxime (STRAGEN Nordic A/S) at a dose of 100 or 400 mg/kg body weight. Cefotaxime was given by intraperitoneal injection twice a day for 6 days starting 24 hours after infection.
After 7 days, the mice were sacrificed, and kidney pathology and inflammation as quantified by neutrophil numbers in urine was assessed. Bacterial clearance was also assessed in SiRNA treated mice by measuring bacterial counts in urine. The results are shown in FIGS. 9A-E and 10A-D respectively.

[2] = test system: pro-inflammatory genes and pathology network genes; experiment: Whole genome transcriptomic analysis of kidneys from Irf7 siRNA treated mice
Description: (§1) Ambion In Vivo Negative Control siRNA was given as a control (Life Technologies, 4457287). For transcriptomic analysis, total RNA was isolated from the kidney of Irf3^−/− mice using mirVana miRNA Isolation Kit (Ambion by Life Technologies) followed by organic extraction using Acid-Phenol:Chloroform. The analysis was done in-house using Mouse Genome 430 PM array strips and GeneAtlas system (Affymetrix).

STAT3 = experiment: Immunohistochemistry of submucosal STAT3 in kidneys of siRNA treated mice; settings: Irf3−/− mice, 7 days after infection
IRF-7 = experiment: Immunohistochemistry of IRF-7 in renal pelvic mucosa of siRNA treated mice; settings: Irf3−/− mice, 7 days after infection
E. coli CFT073 [3] = experiment: Irf7 siRNA therapy given before intravesical E. coli CFT073 infection of susceptible Irf3−/− mice (Example 3)
Procedure: Anesthetized mice (Isofluoran) were infected by intravesical inoculation with E. coli CFT073 (10^8 CFU in 0.1 mL) as described (Hagberg et al., Infection and immunity (1983) 40, 273-283). Overnight static cultures of E. coli CFT073 in Luria broth were used for animal inoculations.
Animals were sacrificed after 7 days under anesthesia, kidneys were aseptically removed and macroscopic pathology was documented by photography. Tissues were divided for RNA extraction (on dry ice), histology and immunostaining (in O.C.T. compound, VWR) and frozen in separate vials at −80° C. Infection was assessed by viable counts of homogenized whole kidney (in 5 mL PBS). Urine samples were collected prior to and at regular times after infection and quantitatively cultured. Neutrophil numbers were quantified in uncentrifuged urine by use of a hemocytometer.
siRNA therapy was used to confirm the role of Irf7 in pathology. Irf3^−/− mice were subjected to siRNA treatment at a dose of 5 mg/kg. A dose (300 μL) of Silencer Select Pre-designed Irf7 siRNA (Life Technologies, 4404010 #s79411) was injected into the tail vein (200 μL) and intravesically (100 μL), three days prior to and on the day of infection with Invivofectamine reagent (Life Technologies, 1377501) (FIG. 5A). The siRNA used was as follows:
as §1
After 7 days following infection, mice were sacrificed. The disease phenotype was defined by macroscopic kidney pathology, number of abscesses, bacterial counts in urine and kidneys, urine neutrophil numbers and tissue imaging (FIGS. 5B and 5D). Irf7 siRNA-treated mice were compared to infected controls receiving irrelevant siRNA with Invivofectamine® or no treatment.

[4] = Cefotaxime 100 or 400 mg/kg intraperitoneal twice a day for 6 days starting 24 hours after infection, 7 days
[5] = abscesses, 7 days after infection
[6] = siRNA 24 hours and 4 days after infection, 7 days
[7] = kidneys of Irf7 siRNA treated Irf3−/− mice infected with CFT073 vs untreated controls
[8] = Irf3−/− mice, siRNA 5 mg/kg three days prior to and on the day of infection, 7 days after infection
[9] = immunohistochemistry 7 days after infection, vs negative control siRNA treated or untreated Irf3−/− mice

## CO/N=C(\C(=O)N[C@@H]1C(=O)N2C(C(=O)O)=C(COC(C)=O)CS[C@H]12)c1csc(N)n1 [Cefotaxime, reference compound]
E. coli CFT073 [1]; [4]
  frequency of abscesses: reduced
  neutrophil numbers in urine (inflammation): reduced

## Irf7 siRNA: Silencer Select Pre-designed Irf7 siRNA (Life Technologies, 4404010 #s79411); sense GUGUUUACGAGGAACCCUAtt, antisense UAGGGUUCCUCGUAAACACgg; delivered with Invivofectamine (sense GUGUUUACGAGGAACCCUATT; antisense UAGGGUUCCUCGUAAACACGG; chemistry not given here)
E. coli CFT073 [1]; [5]
  effect compared with 100 mg/kg of Cefotaxime: similar
  effect compared with 400 mg/kg of Cefotaxime: lower
E. coli CFT073 [1]; [6]
  bacterial counts in urine (bacterial clearance): lower
  neutrophil numbers in urine (magnitude of the neutrophil infiltrate): reduced
E. coli CFT073 [1]; siRNA 24 hours and 4 days after infection, 7 days, listed as SiRNA
  neutrophil numbers in urine (magnitude of the neutrophil infiltrate): significantly reduced
E. coli CFT073 [1]; 7 days after infection
  number (frequency) of abscesses: reduced
E. coli CFT073 [1]; 7 days after infection, listed as SiRNA
  number (frequency) of abscesses: significantly reduced
[2]; Irf7 siRNA treated mice, as stated in Example 5
  pathology-associated gene expression: absence
[2]; [7]
  Tlr4 expression: activated
  expression of pro-inflammatory genes and transcriptional regulators (chemokines, Irf7, Stat3, Jun): suppressed
[2]; kidneys of siRNA treated Irf3−/− mice
  transcript levels overall and of pathology-associated genes (Stat3, S100a8, Cxcl2, Junb): suppressed
STAT3
  submucosal STAT3 staining: reduced; also recorded: inhibited
IRF-7
  mucosal IRF-7 expression (staining) in renal pelvic mucosa: Suppression; also recorded: Inhibition
IRF-7; listed as siRNA
  mucosal IRF-7 expression (staining) in renal pelvic mucosa: Reduced
E. coli CFT073 [3]; Irf3−/− mice, siRNA 5 mg/kg tail vein + intravesically, three days prior to and on the day of infection, 7 days after infection, vs irrelevant siRNA or untreated
  macroscopic kidney pathology and tissue damage: Reduction
E. coli CFT073 [3]; [8]
  bacterial counts in urine and renal tissue: reduction; also recorded: lower
  neutrophil recruitment (neutrophil numbers in urine): reduction; also recorded: reduced
E. coli CFT073 [3]; Irf3−/− mice, siRNA three days prior to and on the day of infection, 7 days after infection, n=3-8
  frequency of abscesses: reduced
E. coli CFT073 [3]; [9]
  bacterial staining, frozen kidney tissue sections: markedly reduced
  neutrophil staining, frozen kidney tissue sections: markedly reduced
